Reference: patent US20250114345A1, “COMPOUNDS AND COMPOSITIONS AS CBP/P300 DEGRADERS AND USES THEREOF” (Oncopia Therapeutics, Inc. d/b/a/ SK Life Science Labs, priority 2023, published 2025)

How the values were obtained:
CBP = target: T1, CBP (Homo sapiens, UniProt Q92793); assay: CBP degradation, HiBit technology in A549 CBP HiBit cells (24 h); assay type: cell-based; settings: 24 hrs post treatment
T1 construct: host or cells: A549 CBP HiBit cells
In short: (§1)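 Endogenously HiBiT-tagged A549 cells are plated, left overnight, then treated with a compound dilution series at 37 °C and 5% CO2. At the set time, lytic detection buffer is added and plates are shaken 10 min at room temperature before luminescence is measured to derive potency and Dmax.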

p300 = target: T2, p300 (Homo sapiens, UniProt Q09472); assay: P300 degradation, HiBit technology in A549 P300 HiBit cells (2 h); assay type: cell-based; settings: 2 hrs post treatment; for Dmax: A549, A549 P300 HiBit cells; for DC50: A549 P300 HiBit cells
T2 construct: host or cells: A549 P300 HiBit cells
In short: as §1

T1 sequence (Q92793 whole entry): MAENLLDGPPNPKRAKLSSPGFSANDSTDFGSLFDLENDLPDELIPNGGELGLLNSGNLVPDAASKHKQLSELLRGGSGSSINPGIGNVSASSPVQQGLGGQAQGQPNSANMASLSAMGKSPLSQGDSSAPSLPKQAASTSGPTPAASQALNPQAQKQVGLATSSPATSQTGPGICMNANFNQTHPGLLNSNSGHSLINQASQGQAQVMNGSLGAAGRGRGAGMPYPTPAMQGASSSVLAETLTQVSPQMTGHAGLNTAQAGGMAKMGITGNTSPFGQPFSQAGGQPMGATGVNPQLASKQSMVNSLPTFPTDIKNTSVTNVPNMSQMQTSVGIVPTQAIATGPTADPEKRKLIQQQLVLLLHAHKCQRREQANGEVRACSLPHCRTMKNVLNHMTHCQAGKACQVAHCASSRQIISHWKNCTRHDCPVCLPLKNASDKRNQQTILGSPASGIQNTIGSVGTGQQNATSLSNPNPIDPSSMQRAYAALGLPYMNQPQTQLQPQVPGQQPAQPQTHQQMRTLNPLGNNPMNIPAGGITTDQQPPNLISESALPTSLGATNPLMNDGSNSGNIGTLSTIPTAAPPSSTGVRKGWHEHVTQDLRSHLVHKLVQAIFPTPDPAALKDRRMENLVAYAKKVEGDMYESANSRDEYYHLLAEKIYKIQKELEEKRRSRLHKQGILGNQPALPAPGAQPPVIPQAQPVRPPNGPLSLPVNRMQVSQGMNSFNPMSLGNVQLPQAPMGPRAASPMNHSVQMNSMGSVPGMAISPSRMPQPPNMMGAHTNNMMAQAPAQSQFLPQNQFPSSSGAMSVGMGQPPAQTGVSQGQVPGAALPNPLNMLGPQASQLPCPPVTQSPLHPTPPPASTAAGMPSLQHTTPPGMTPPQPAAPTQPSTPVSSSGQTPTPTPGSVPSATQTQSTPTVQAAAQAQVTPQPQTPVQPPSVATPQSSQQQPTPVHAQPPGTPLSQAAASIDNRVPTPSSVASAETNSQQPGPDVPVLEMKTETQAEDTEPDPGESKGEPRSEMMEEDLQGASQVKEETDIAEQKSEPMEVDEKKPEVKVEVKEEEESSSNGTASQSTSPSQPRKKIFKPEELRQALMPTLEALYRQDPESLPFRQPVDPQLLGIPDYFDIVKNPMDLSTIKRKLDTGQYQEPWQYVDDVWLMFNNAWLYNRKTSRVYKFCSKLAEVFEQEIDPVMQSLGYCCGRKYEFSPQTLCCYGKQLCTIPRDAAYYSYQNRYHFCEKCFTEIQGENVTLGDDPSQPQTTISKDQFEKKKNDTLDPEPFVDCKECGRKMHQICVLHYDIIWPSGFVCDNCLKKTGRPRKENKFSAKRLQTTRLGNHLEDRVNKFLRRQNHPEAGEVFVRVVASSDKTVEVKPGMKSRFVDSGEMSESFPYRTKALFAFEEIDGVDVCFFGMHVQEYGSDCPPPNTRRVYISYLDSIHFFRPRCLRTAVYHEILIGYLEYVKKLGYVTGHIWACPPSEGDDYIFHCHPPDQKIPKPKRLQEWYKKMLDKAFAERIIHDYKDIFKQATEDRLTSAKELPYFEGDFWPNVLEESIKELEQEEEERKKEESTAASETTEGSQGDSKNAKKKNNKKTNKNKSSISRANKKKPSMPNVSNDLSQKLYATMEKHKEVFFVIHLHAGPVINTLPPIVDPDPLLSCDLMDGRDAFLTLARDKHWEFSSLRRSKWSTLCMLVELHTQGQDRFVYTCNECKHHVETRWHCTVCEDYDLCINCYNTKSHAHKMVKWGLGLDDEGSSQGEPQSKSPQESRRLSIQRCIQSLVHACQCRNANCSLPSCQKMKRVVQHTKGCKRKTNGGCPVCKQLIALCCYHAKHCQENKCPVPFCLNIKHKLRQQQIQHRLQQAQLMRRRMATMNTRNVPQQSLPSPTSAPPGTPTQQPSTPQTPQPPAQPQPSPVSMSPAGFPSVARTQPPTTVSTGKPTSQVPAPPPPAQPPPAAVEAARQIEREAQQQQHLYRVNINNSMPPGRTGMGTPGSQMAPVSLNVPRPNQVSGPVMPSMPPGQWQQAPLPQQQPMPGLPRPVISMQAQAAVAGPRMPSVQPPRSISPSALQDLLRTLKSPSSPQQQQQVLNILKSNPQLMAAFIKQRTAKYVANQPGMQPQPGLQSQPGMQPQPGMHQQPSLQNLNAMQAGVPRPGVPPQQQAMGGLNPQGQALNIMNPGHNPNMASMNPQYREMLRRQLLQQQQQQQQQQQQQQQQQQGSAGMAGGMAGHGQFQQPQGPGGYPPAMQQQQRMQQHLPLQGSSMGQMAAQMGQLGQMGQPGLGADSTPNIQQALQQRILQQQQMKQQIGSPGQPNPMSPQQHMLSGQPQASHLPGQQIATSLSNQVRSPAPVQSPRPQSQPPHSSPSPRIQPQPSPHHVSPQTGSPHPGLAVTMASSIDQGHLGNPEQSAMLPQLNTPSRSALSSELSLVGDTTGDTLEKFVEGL
T2 sequence (Q09472 whole entry): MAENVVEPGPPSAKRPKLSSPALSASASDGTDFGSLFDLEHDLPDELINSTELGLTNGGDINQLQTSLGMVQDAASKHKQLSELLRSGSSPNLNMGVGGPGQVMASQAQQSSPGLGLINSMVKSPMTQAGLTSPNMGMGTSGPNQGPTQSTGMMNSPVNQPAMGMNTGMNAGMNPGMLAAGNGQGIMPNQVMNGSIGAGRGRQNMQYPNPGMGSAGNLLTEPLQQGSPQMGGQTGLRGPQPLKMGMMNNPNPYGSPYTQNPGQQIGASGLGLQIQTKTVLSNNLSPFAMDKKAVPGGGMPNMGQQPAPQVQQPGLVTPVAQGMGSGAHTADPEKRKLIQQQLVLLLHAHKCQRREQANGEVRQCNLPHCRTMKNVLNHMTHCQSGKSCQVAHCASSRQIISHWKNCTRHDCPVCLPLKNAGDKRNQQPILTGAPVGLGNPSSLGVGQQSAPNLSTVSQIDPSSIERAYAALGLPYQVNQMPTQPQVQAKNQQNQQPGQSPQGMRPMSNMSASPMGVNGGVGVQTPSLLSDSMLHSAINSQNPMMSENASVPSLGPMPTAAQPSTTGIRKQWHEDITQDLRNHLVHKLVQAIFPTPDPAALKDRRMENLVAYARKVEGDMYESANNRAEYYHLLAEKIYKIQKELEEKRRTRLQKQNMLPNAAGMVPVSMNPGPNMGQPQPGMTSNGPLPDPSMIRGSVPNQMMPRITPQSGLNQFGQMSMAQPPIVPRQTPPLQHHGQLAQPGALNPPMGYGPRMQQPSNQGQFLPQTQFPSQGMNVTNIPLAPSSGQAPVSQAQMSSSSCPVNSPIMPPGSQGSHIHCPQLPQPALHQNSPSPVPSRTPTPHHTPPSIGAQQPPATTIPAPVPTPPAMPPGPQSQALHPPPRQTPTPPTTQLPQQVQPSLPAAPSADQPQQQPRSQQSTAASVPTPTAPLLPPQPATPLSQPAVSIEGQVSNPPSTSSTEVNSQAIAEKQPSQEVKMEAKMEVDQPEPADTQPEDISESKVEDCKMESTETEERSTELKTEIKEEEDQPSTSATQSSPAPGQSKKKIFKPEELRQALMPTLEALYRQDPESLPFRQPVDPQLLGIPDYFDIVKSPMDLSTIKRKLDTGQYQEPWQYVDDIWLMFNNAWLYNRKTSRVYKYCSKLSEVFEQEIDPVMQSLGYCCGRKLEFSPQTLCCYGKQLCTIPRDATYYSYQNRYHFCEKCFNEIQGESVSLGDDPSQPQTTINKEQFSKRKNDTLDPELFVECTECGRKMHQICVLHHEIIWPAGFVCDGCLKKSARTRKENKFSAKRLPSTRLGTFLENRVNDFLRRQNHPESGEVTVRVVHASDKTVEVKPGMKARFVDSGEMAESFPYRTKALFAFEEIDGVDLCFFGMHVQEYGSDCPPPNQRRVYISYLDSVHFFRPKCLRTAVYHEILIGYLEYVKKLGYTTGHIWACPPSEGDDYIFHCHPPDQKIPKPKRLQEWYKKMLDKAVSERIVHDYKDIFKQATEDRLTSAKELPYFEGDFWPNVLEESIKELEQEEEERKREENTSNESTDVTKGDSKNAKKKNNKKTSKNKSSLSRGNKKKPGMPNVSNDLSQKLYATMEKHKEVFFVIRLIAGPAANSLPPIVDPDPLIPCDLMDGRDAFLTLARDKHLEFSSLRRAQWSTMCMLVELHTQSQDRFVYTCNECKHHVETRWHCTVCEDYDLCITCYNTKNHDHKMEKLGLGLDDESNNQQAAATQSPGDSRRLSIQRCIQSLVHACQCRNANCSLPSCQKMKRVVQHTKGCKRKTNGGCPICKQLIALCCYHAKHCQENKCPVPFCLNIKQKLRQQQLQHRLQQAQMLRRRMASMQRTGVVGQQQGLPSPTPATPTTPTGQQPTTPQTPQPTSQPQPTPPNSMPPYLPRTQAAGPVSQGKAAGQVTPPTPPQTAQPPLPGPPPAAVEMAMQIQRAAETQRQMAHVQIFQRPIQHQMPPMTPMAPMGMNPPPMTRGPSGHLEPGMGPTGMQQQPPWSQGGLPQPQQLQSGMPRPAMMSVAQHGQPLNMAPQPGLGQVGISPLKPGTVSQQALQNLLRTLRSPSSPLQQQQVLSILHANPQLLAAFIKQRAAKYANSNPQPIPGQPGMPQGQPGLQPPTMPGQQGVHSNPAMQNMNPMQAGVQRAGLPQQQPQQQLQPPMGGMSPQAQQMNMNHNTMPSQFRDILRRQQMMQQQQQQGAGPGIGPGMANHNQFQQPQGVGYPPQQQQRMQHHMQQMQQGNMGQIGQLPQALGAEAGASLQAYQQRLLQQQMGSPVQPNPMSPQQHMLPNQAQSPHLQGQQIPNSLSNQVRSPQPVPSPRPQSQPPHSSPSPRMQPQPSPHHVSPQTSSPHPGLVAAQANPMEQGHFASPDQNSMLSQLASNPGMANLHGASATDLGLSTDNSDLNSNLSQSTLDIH

Row | SMILES | DC50 (CBP) [nM] | Dmax (CBP) [%] | Dmax (p300) [%] | DC50 (p300) [nM]
1 | Cn1c(=O)n(C)c2c(N3CC4CC(C3)O4)nc(-c3cccc4cc(-c5ccc(C(=O)NCC#Cc6cc7c(C8CCC(=O)NC8=O)cccc7o6)nc5)ncc34)cc21 (centres unmarked) [Example A210, 5-(8-(4-(6-oxa-3-azabicyclo[3.1.1]heptan-3-yl)-1,3-dimethyl-2-oxo-2,3-dihydro-1H-imidazo[4,5-c]pyridin-6-yl)isoquinolin-3-yl)-N-(3-(4-(2,6-dioxopiperidin-3-yl)benzofuran-2-yl)prop-2-yn-1-yl)picolinamide] | > 1000 | < 20 | > 80 | < 1
2 | CC(C)c1cc(N(C)c2cnc(-c3ccc(C(=O)NCC#Cc4ccc5cnn(C6CCC(=O)NC6=O)c5c4)nc3)nc2)cc2c1n(C)c(=O)n2C (centres unmarked) [Example A211, N-(3-(1-(2,6-dioxo-piperidin-3-yl)-1H-indazol-6-yl)prop-2-yn-1-yl)-5-(5-((7-isopropyl-1,3-dimethyl-2-oxo-2,3-dihydro-1H-benzo [d]imidazol-5-yl)(methyl)amino)pyrimidin-2-yl)picolinamide] | > 1000 | < 20 | > 80 | 1 to 9.9
3 | CC(C)c1cc(-c2cccc3cc(-c4ccc(C(=O)NCC#Cc5ccc6occ(C78CC(C7)C(=O)NC8=O)c6c5)nc4)ncc23)cc2c1n(C)c(=O)n2C [Example A212, N-(3-(3-(2,4-dioxo-3-azabicyclo[3.1.1]heptan-1-yl)benzofuran-5-yl)prop-2-yn-1-yl)-5-(8-(7-isopropyl-1,3-dimethyl-2-oxo-2,3-dihydro-1H-benzo[d]imidazol-5-yl)isoquinolin-3-yl)picolinamide] | > 1000 | < 20 | > 80 | 1 to 9.9
4 | Cn1c(=O)n(C)c2cc(-c3cccc4cc(-c5ccc(C(=O)NCC#Cc6cc7c(C8CCC(=O)NC8=O)nccc7o6)nc5)ncc34)ccc21 (centres unmarked) [Example A213, 5-(8-(1,3-dimethyl-2-oxo-2,3-dihydro-1H-benzo[d]imidazol-5-yl)isoquinolin-3-yl)-N-(3-(4-(2,6-dioxo-piperidin-3-yl)furo[3,2-c]pyridin-2-yl)prop-2-yn-1-yl)picolinamide] | > 1000 | < 20 | > 80 | < 1
5 | CC(C)c1cc(-c2cccc3cc(-c4ccc(C(=O)NCC#Cc5cc6cccc(C7CCC(=O)NC7=O)c6o5)nc4)ncc23)cc2c1n(C)c(=O)n2C (centres unmarked) [Example A216, N-(3-(7-(2,6-dioxo-piperidin-3-yl)benzofuran-2-yl)prop-2-yn-1-yl)-5-(8-(7-isopropyl-1,3-dimethyl-2-oxo-2,3-dihydro-1H-benzo [d]imidazol-5-yl)isoquinolin-3-yl)picolinamide] | > 1000 | < 20 | > 80 | 1 to 9.9
6 | Cc1cc(N2CCN(C)c3nc(-c4ccc(C(=O)NCC#Cc5cc6c(C7CCC(=O)NC7=O)cccc6o5)nc4)ncc32)cc2c1n(C)c(=O)n2C (centres unmarked) [Example A219, N-(3-(4-(2,6-dioxo-piperidin-3-yl)benzofuran-2-yl)prop-2-yn-1-yl)-5-(8-methyl-5-(1,3,7-trimethyl-2-oxo-2,3-dihydro-1H-benzo[d]imidazol-5-yl)-5,6,7,8-tetrahydro-pteridin-2-yl)picolinamide] | 100 to 999 | < 20 | > 80 | < 1
7 | CC(C)c1cc(-c2cccc3cc(-c4ccc(C(=O)NCC#Cc5cnc6c(c5)c(C5CCC(=O)NC5=O)nn6C)nc4)ncc23)cc2c1n(C)c(=O)n2C (centres unmarked) [Example A221, N-(3-(3-(2,6-dioxo-piperidin-3-yl)-1-methyl-1H-pyrazolo [3,4-b]pyridin-5-yl)prop-2-yn-1-yl)-5-(8-(7-isopropyl-1,3-dimethyl-2-oxo-2,3-dihydro-1H-benzo[d]imidazol-5-yl)isoquinolin-3-yl)picolinamide] | > 1000 | < 20 | > 80 | 1 to 9.9
8 | Cn1c(=O)n(C)c2c(N3CCOCC3)nc(-c3cccc4cc(-c5ccc(C(=O)NCC#Cc6cc7c(C8CCC(=O)NC8=O)cccc7o6)nc5)ncc34)cc21 (centres unmarked) [Example A223, 5-(8-(1,3-dimethyl-4-morpholino-2-oxo-2,3-dihydro-1H-imidazo[4,5-c]pyridin-6-yl)isoquinolin-3-yl)-N-(3-(4-(2,6-dioxopiperidin-3-yl)benzofuran-2-yl)prop-2-yn-1-yl)picolinamide] | 100 to 999 | < 20 | > 80 | < 1
9 | Cn1c(=O)n(C)c2cc(N3CCCc4nc(-c5ccc(C(=O)NCC#Cc6cc7c(C8CCC(=O)NC8=O)cccc7o6)nc5)ncc43)ccc21 (centres unmarked) [Example A226, 5-(5-(1,3-dimethyl-2-oxo-2,3-dihydro-1H-benzo[d]imidazol-5-yl)-5,6,7,8-tetrahydropyrido [3,2-d]pyrimidin-2-yl)-N-(3-(4-(2,6-dioxo-piperidin-3-yl)benzofuran-2-yl)prop-2-yn-1-yl)picolinamide] | 100 to 999 | < 20 | > 80 | < 1
10 | CC(C)c1cc(-c2cccc3cc(-c4ccc(C(=O)NCC#Cc5cc6c(C7CCC(=O)NC7=O)coc6cc5F)nc4)ncc23)cc2c1n(C)c(=O)n2C (centres unmarked) [Example A234, N-(3-(3-(2,6-dioxo-piperidin-3-yl)-6-fluorobenzofuran-5-yl)prop-2-yn-1-yl)-5-(8-(7-isopropyl-1,3-dimethyl-2-oxo-2,3-dihydro-1H-benzo [d]imidazol-5-yl)isoquinolin-3-yl)picolinamide] | > 1000 | < 20 | > 80 | 1 to 9.9
11 | CC(C)c1cc(N2CCCc3nc(-c4ccc(C(=O)NCC#Cc5cc6c(C7CCC(=O)NC7=O)cccc6o5)nc4)ncc32)cc2c1n(C)c(=O)n2C (centres unmarked) [Example A237, N-(3-(4-(2,6-dioxo-piperidin-3-yl)benzofuran-2-yl)prop-2-yn-1-yl)-5-(5-(7-isopropyl-1,3-dimethyl-2-oxo-2,3-dihydro-1H-benzo [d]imidazol-5-yl)-5,6,7,8-tetrahydro-pyrido[3,2-d]pyrimidin-2-yl)picolinamide] | 100 to 999 | < 20 | > 80 | < 1
12 | Cc1cc(-c2cc3c(cn2)N(c2cc(C(C)C)c4c(c2)n(C)c(=O)n4C)CCC3)cnc1C(=O)NCC#Cc1ccn2ncc(C3CCC(=O)NC3=O)c2c1 (centres unmarked) [Example A238, N-(3-(3-(2,6-dioxo-piperidin-3-yl)pyrazolo[1,5-a]pyridin-5-yl)prop-2-yn-1-yl)-5-(1-(7-isopropyl-1,3-dimethyl-2-oxo-2,3-dihydro-1H-benzo[d]imidazol-5-yl)-1,2,3,4-tetrahydro-1,7-naphthyridin-6-yl)-3-methylpicolinamide] | 1 to 9.9 | 40 to 59 | > 80 | < 1
13 | Cn1nc(C2CCC(=O)NC2=O)c2cc(C#CCNC(=O)c3ccc(-c4ncc5c(n4)OCCN5c4ccc5c(c4)n(C)c(=O)n5C)cn3)ccc21 (centres unmarked) [Example A243, 5-(5-(1,3-dimethyl-2-oxo-2,3-dihydro-1H-benzo[d]imidazol-5-yl)-6,7-dihydro-5H-pyrimido[4,5-b][1,4]oxazin-2-yl)-N-(3-(3-(2,6-dioxopiperidin-3-yl)-1-methyl-1H-indazol-5-yl)prop-2-yn-1-yl)picolinamide] | > 1000 | < 20 | > 80 | 1 to 9.9
14 | Cn1c(=O)n(C)c2cc(N3CCOc4nc(-c5ccc(C(=O)NCC#Cc6cc7cccc(C8CCC(=O)NC8=O)c7o6)nc5)ncc43)ccc21 (centres unmarked) [Example A247, 5-(5-(1,3-dimethyl-2-oxo-2,3-dihydro-1H-benzo[d]imidazol-5-yl)-6,7-dihydro-5H-pyrimido[4,5-b][1,4]oxazin-2-yl)-N-(3-(7-(2,6-dioxopiperidin-3-yl)benzofuran-2-yl)prop-2-yn-1-yl) picolinamide] | > 1000 | < 20 | 20 to 39 | 10 to 99
15 | Cc1oc2ccc(C#CCNC(=O)c3ccc(-c4cc5cccc(-c6cc(C(C)C)c7c(c6)n(C)c(=O)n7C)c5cn4)cn3)cc2c1C1CCC(=O)NC1=O (centres unmarked) [Example A248, N-(3-(3-(2,6-dioxo-piperidin-3-yl)-2-methylbenzofuran-5-yl)prop-2-yn-1-yl)-5-(8-(7-isopropyl-1,3-dimethyl-2-oxo-2,3-dihydro-1H-benzo [d]imidazol-5-yl)isoquinolin-3-yl) picolinamide] | > 1000 | < 20 | > 80 | 10 to 99
16 | Cc1cc(-c2ncc3c(n2)OCCN3c2ccc3c(c2)n(C)c(=O)n3C)cnc1C(=O)NCC#Cc1cc2ccnc(C3CCC(=O)NC3=O)c2o1 (centres unmarked) [Example A251, 5-(5-(1,3-dimethyl-2-oxo-2,3-dihydro-1H-benzo[d]imidazol-5-yl)-6,7-dihydro-5H-pyrimido[4,5-b][1,4]oxazin-2-yl)-N-(3-(7-(2,6-dioxopiperidin-3-yl)furo[2,3-c]pyridin-2-yl)prop-2-yn-1-yl)-3-methylpicolinamide] | > 1000 | < 20 | 60 to 79 | 10 to 99
17 | CC(C)c1cc(-c2cccc3cc(-c4ccc(C(=O)NCC#Cc5cc(F)c6occ(C7CCC(=O)NC7=O)c6c5)nc4)ncc23)cc2c1n(C)c(=O)n2C (centres unmarked) [Example A254, N-(3-(3-(2,6-dioxo-piperidin-3-yl)-7-fluorobenzofuran-5-yl)prop-2-yn-1-yl)-5-(8-(7-isopropyl-1,3-dimethyl-2-oxo-2,3-dihydro-1H-benzo [d]imidazol-5-yl)isoquinolin-3-yl)picolinamide] | > 1000 | < 20 | > 80 | 1 to 9.9
